Here are results for 30 compounds from publication PMC9696832, “Pyrazole-Based Thrombin Inhibitors with a Serine-Trapping Mechanism of Action: Synthesis and Biological Activity” (Pharmaceuticals, 2022).

The structures appear in SMILES notation. Read-outs that look alike come from different tables or passages of the source.

One may read the IC50 as the concentration that gives 50% inhibition. The melting point is the temperature of the solid-liquid transition.

For data set [1], the target named is T1, human α-thrombin (Homo sapiens, UniProt P00734).
T1 construct: human α-thrombin (active) protein; purchased antibodies-online ABIN2127880
Description: Serine protease inhibition assay, fluorogenic substrate: thrombin. It counts as biochemical.
Description: Serine protease inhibition assays. The inhibitory activity of synthesized compounds towards thrombin, FXIIa, FXa, FXIa, plasmin, plasma kallikrein, chymotrypsin, and trypsin was measured by quantifying the hydrolysis rate of the fluorogenic substrate as reported previously [14, 17]. Briefly, the activity was tested in buffer (10 mM Tris-Cl, 150 mM NaCl, 10 mM MgCl2·6H2O, 1 mM CaCl2·2H2O, 0.1% w/v BSA, 0.01% v/v Triton-X100, pH = 7.4) utilizing clear flat-bottom, black polystyrene 96 well-plates. […] The fluorogenic substrate solution was added into the wells followed by the addition of 2 µL of test-compounds solution, and the reaction was triggered by addition of the enzyme solution (final testing volume–152 µL). In case of blank (substrate + buffer) and control (substrate + enzyme) wells, 2 µL of DMSO was added instead of the test-compounds’ solution. […] To derive IC50 values, endpoint RFU (single fluorescence reading) was used. Sigmoidal curves were prepared in GraphPad Prism software and IC50 values were derived from the fitted curves [14, 17].

For data set [2], the target named is T2, human β-FXIIa (Homo sapiens, UniProt P00748).
T2 construct: human β-FXIIa, HFXIIAB; purchased Molecular Innovations HFXIIAB
The experiment in a line: Serine protease inhibition assay, fluorogenic substrate: FXIIa. It counts as biochemical. The conditions noted are these: for IC50: read-out: Serine Protease IC50 ± SD, FXIIa. The procedure:
Serine protease inhibition assays. The inhibitory activity of synthesized compounds towards thrombin, FXIIa, FXa, FXIa, plasmin, plasma kallikrein, chymotrypsin, and trypsin was measured by quantifying the hydrolysis rate of the fluorogenic substrate as reported previously. Briefly, the activity was tested in buffer (10 mM Tris-Cl, 150 mM NaCl, 10 mM MgCl2·6H2O, 1 mM CaCl2·2H2O, 0.1% w/v BSA, 0.01% v/v Triton-X100, pH = 7.4) utilizing clear flat-bottom, black polystyrene 96 well-plates. […] Dilutions of test-compounds ranging from 2 nM to 32 µM (final concentrations) in DMSO were prepared. The fluorogenic substrate solution was added into the wells followed by the addition of 2 µL of test-compounds solution, and the reaction was triggered by addition of the enzyme solution (final testing volume–152 µL). In case of blank (substrate + buffer) and control (substrate + enzyme) wells, 2 µL of DMSO was added instead of the test-compounds’ solution. Fluorescence intensity was measured with Microplate Reader Mithras LB 940 (Berthold Technologies, excitation at 355 nm, emission at 460 nm) for a period of 1 h (thrombin, FXIIa, FXa, FXIa, and trypsin), 30 min (plasma kallikrein, chymotrypsin), or 15 min (plasmin) with a read every minute. The reactions were performed at 25 °C. To derive IC50 values, endpoint RFU (single fluorescence reading) was used. Sigmoidal curves were prepared in GraphPad Prism software and IC50 values were derived from the fitted curves.

Where [3] appears, read: read-out: Serine Protease IC50 ± SD, Thrombin.
[4] abbreviates: [S]0 = 25 µM Boc-Val-Pro-Arg-AMC, Km = 18 ± 1 µM, triplicate, 25 °C, read-out: Serine Protease IC50 ± SD, Thrombin.

T2 sequence (P00748 373-615 limits assumed, other chains not shown): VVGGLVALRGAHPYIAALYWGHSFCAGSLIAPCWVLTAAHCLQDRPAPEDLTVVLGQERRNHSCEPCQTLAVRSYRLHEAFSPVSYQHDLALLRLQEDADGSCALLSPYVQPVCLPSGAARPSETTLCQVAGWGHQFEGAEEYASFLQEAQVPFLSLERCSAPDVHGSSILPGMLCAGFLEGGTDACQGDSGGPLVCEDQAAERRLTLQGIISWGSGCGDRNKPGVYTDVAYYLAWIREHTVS

Turning to `O=c1c2ccccc2n(Cc2ccccc2)c2cc(-c3cccnc3)nn12` [10a, 4-benzyl-2-(pyridin-3-yl)pyrazolo[5,1b]quinazolin-9(4H)-one], the melting point came out at 266 °C. For the same compound, the IC50 in data set [1] (setting [3]) was over 5 µM. Besides, the half-maximal inhibitory concentration (IC50) in data set [2] was over 5 µM.
As to `O=c1[nH]c2nc(-c3ccncc3)nn2c2ccccc12` [compound 23, 2-(pyridin-4-yl)-[1,2,4]triazolo[1,5-a]quinazolin-5(4H)-one], the concentration for half-maximal inhibition (IC50) in data set [1] (setting [3]) and in data set [2] was over 5 µM throughout.
With `O=c1c2ccccc2[nH]c2nc(-c3ccncc3)nn12` [compound 22, 2-(pyridin-4-yl)-[1,2,4]triazolo[5,1-b]quinazolin-9(4H)-one], in data set [1] (setting [3]), the IC50 is over 5 µM.
Compound `CC(C)(C)C(=O)n1nc(C2CCCCC2)cc1NCc1ccccc1` [24h, 1-[5-(benzylamino)-3-cyclohexyl-1H-pyrazol-1-yl]-2,2-dimethylpropan-1-one] yielded a melting point of 47 °C. Moreover, the “thrombin inhibitory properties (in words)” value in data set [1] was “inactive”. Also, the IC50 in data set [1] (setting [4]) is over 5 µM. In addition, in data set [2], the “FXIIa inhibitory properties (in words)” value is “inactive” and the IC50 was over 5 µM.
Compound `O=c1c2ccccc2n(Cc2ccccc2)c2cc(C3CCCCC3)nn12` [10h, 4-benzyl-2-cyclohexylpyrazolo[5,1-b]quinazolin-9(4H)-one] displayed a melting point of 180 to 181 °C. Besides, the IC50 in data set [1] (setting [3]) was over 5 µM. Also, in data set [2], the IC50 was over 5 µM.
Turning to `CC(C)(C)C(=O)n1nc(-c2cccnc2)cc1NCc1cccc2ccccc12` [24c, 2,2-dimethyl-1-(5-{[(naphthalen-1-yl)methyl]amino}-3-(pyridin-3-yl)-1H-pyrazol-1-yl)propan-1-one], the melting point lay in the range of 130 to 131 °C. Besides, the IC50 in data set [1] (setting [4]) is over 5 µM. Further, the 50% inhibitory concentration (IC50) in data set [2] was over 5 µM.
Compound `COc1ccc(CNc2cc(-c3cccnc3)nn2C(=O)c2ccccc2I)cc1` [9b, (2-iodophenyl){5-[(4-methoxybenzyl)amino]-3-(pyridin-3-yl)-1H-pyrazol-1-yl}methanone] returned a melting point of 136 to 137 °C. For the same compound, in data set [1] (setting [3]), the IC50 was over 5 µM. Further, the half-inhibitory concentration (IC50) in data set [2] was over 5 µM.
In the case of `O=C(c1ccccc1I)n1nc(C2CCCCC2)cc1NCc1ccc(Cl)s1` [9i, (5-{[(5-chlorothiophen-2-yl)methyl]amino}-3-cyclohexyl-1H-pyrazol-1-yl)(2-iodophenyl)methanone], the “thrombin inhibitory properties (in words)” value in data set [1] is listed as “no activity”. Moreover, the IC50 in data set [1] (setting [4]) and in data set [2] was over 5 µM throughout.
The compound `O=C(c1ccccc1I)n1nc(-c2ccccc2)cc1NCc1ccc(Cl)s1` [9g, (5-{[(5-chlorothiophen-2-yl)methyl]amino}-3-phenyl-1H-pyrazol-1-yl)(2-iodophenyl)methanone] yielded a melting point of 137 to 138 °C. Further, the IC50 in data set [1] (setting [4]) was 1.31 ± 0.032 µM. Also, the IC50 in data set [1] (read-out: thrombin IC50) turned out to be 1.3 µM. Moreover, in data set [2], the IC50 is over 5 µM.
As for `O=C(Nc1cc(-c2cccnc2)n[nH]1)c1ccccc1` [26a, N-[3-(pyridin-3-yl)-1H-pyrazol-5-yl]benzamide], the melting point was 270 °C (dec.).
`O=c1c2ccccc2[nH]c2nc(-c3cccnc3)nn12` [compound 20, 2-(pyridin-3-yl)-[1,2,4]triazolo[5,1-b]quinazolin-9(4H)-one]: the IC50 in data set [1] (setting [3]) and in data set [2] was over 5 µM each time.
Turning to `O=c1c2ccccc2n(Cc2ccc(Cl)s2)c2cc(-c3ccccc3)nn12` [10g, 4-[(5-chlorothiophen-2-yl)methyl]-2-phenylpyrazolo[5,1-b]quinazolin-9(4H)-one], the IC50 in data set [1] (setting [3]) and in data set [2] was over 5 µM throughout.
With `O=C(c1ccccc1I)n1nc(-c2cccnc2)cc1NCC1CCCCC1` [9f, {5-[(cyclohexylmethyl)amino]-3-(pyridin-3-yl)-1H-pyrazol-1-yl}(2-iodophenyl)methanone], the IC50 in data set [1] (setting [3]) and in data set [2] was over 5 µM throughout.
The compound `O=c1c2ccccc2n(Cc2cccc3ccccc23)c2cc(-c3cccnc3)nn12` [10c, 4-[(naphthalen-1-yl)methyl]-2-(pyridin-3-yl)pyrazolo[5,1-b]quinazolin-9(4H)-one] registered a melting point of 252 °C. The IC50 in data set [1] (setting [3]) is over 5 µM. Also, the IC50 in data set [2] is over 5 µM.
For `COc1ccc(CNc2cc(-c3cccnc3)nn2C(=O)C(C)(C)C)cc1` [24b, 1-{5-[(4-methoxybenzyl)amino]-3-(pyridin-3-yl)-1H-pyrazol-1-yl}-2,2-dimethylpropan-1-one], the melting point is 130 °C. Moreover, the half-inhibitory concentration (IC50) in data set [1] (setting [4]) is 1.282 ± 0.009 µM. The IC50 in data set [1] (read-out: thrombin IC50) was about 1.3 µM. Also, in data set [2], the IC50 was over 5 µM.
The compound `O=C(c1ccccc1I)n1nc(-c2cccnc2)cc1NCc1ccccc1` [9a, [5-(benzylamino)-3-(pyridin-3-yl)-1H-pyrazol-1-yl](2-iodophenyl)methanone] came in with a melting point of 115 °C. The 50% inhibitory concentration (IC50) in data set [1] (setting [3]) is over 5 µM. Moreover, in data set [2], the IC50 is over 5 µM.
With `CC(C)(C)C(=O)n1nc(-c2ccccc2)cc1NCc1ccc(Cl)s1` [24g, 1-(5-{[(5-chlorothiophen-2-yl)methyl]amino}-3-phenyl-1H-pyrazol-1-yl)-2,2-dimethylpropan-1-one], the IC50 in data set [1] (setting [4]) was 0.419 ± 0.099 µM; in data set [2], over 5 µM.
On to `O=C(Nc1cc(-c2cccnc2)n[nH]1)c1ccccc1I` [compound 14, 2-iodo-N-[3-(pyridin-3-yl)-1H-pyrazol-5-yl]benzamide], for which the IC50 in data set [1] (setting [3]) and in data set [2] was over 5 µM in each case.
For the compound `[H]/N=C(/N)c1ccc(NCc2nc3cc(C(=O)N(CCC(=O)O)c4ccccn4)ccc3n2C)cc1` [Dabigatran, reference compound], the IC50 in data set [2] is over 5 µM.
As to `O=c1c2ccccc2n(Cc2ccc(Cl)s2)c2nc(-c3cnccn3)nn12` [compound 19, 4-[(5-chlorothiophen-2-yl)methyl]-2-(pyrazin-2-yl)-[1,2,4]triazolo[5,1-b]quinazolin-9(4H)-one], the IC50 in data set [1] (setting [3]) and in data set [2] was over 5 µM in each case.
As for `CC(C)(C)C(=O)n1nc(-c2cccnc2)cc1NCc1ccco1` [24d, 1-(5-{[(furan-2-yl)methyl]amino}-3-(pyridin-3-yl)-1H-pyrazol-1-yl)-2,2-dimethylpropan-1-one], the values for the IC50 in data set [1] (setting [4]), in data set [1] (read-out: thrombin IC50) and in data set [2] were 1.31 ± 0.032 µM, about 1.3 µM and over 5 µM, respectively.
`O=C(c1ccccc1I)n1nc(C2CCCCC2)cc1NCc1ccccc1` [9h, [5-(benzylamino)-3-cyclohexyl-1H-pyrazol-1-yl](2-iodophenyl)methanone]: the IC50 in data set [1] (setting [3]) and in data set [2] was over 5 µM in each case.
`Nc1cc(-c2ccccc2)nn1C(=O)c1ccccc1` [29b, (5-amino-3-phenyl-1H-pyrazol-1-yl)(phenyl)methanone]: the IC50 in data set [1] (setting [3]) and in data set [2] was over 5 µM each time.
`O=c1c2ccccc2n(Cc2ccc(Cl)s2)c2cc(C3CCCCC3)nn12` [10i, 4-[(5-chlorothiophen-2-yl)methyl]-2-cyclohexylpyrazolo[5,1-b]quinazolin-9(4H)-one] showed a melting point of 210 °C. For the same compound, in data set [1] (setting [3]), the IC50 is over 5 µM. Moreover, the IC50 in data set [2] was over 5 µM.
On to `COc1ccc(Cn2c3ccccc3c(=O)n3nc(-c4cccnc4)cc23)cc1` [10b, 4-(4-methoxybenzyl)-2-(pyridin-3-yl)pyrazolo[5,1-b]quinazolin-9(4H)-one], for which the melting point came to 245 °C. The IC50 in data set [1] (setting [3]) is over 5 µM. Also, the IC50 in data set [2] was over 5 µM.
Take `O=c1c2ccccc2n(CC2CCCCC2)c2cc(-c3cccnc3)nn12` [10f, 4-(cyclohexylmethyl)-2-(pyridin-3-yl)pyrazolo[5,1-b]quinazolin-9(4H)-one]: the IC50 in data set [1] (setting [3]) and in data set [2] was over 5 µM each time.
For the compound `O=c1[nH]c2cc(-c3cccnc3)nn2c2ccccc12` [compound 15, 2-(pyridin-3-yl)pyrazolo[1,5-a]quinazolin-5(4H)-one], the half-maximal inhibitory concentration (IC50) in data set [1] (setting [3]) and in data set [2] was over 5 µM throughout.
With `O=C(c1ccccc1I)n1nc(-c2cccnc2)cc1NCc1ccc(Cl)s1` [9e, (5-{[(5-chlorothiophen-2-yl)methyl]amino}-3-(pyridin-3-yl)-1H-pyrazol-1-yl)(2-iodophenyl)methanone], the “fold more potent thrombin inhibitor than 3-phenyl-substituted counterpart 9g” value in data set [1] (IC50 165 nM vs. 1.3 μM) was “about 8 fold”. Also, the IC50 was 0.165 ± 0.005 µM in data set [1] (setting [3]) and over 5 µM in data set [2].
Take `O=c1[nH]c2nc(-c3cccnc3)nn2c2ccccc12` [compound 21, 2-(pyridin-3-yl)-[1,2,4]triazolo[1,5-a]quinazolin-5(4H)-one]: the IC50 in data set [1] (setting [3]) and in data set [2] was over 5 µM each time.
In the case of `Nc1cc(-c2cccnc2)nn1C(=O)c1ccccc1` [29a, [5-amino-3-(pyridin-3-yl)-1H-pyrazol-1-yl](phenyl)methanone], the IC50 in data set [1] (setting [3]) and in data set [2] was over 5 µM throughout.
